Several values for one entry are separate records, joined by “and”; a condition that tells them apart may be missing. Equal values may be shown once. Where a SMILES comes first, the peptide text is derived from it. [ ]: non-standard residue; d: D form. Hyp = O=C(O)[C@@H]1C[C@@H](O)CN1
Columns and labels:
CCL2/MCP-1 = assay: Example 8 main study Luminex, LPS hPBMCs: CCL2/MCP-1; assay type: cell-based, human; details: for CCL2/MCP-1 Concentration: single replicates
Method: (§1) Human PBMCs were pretreated with YY-101, YDE-011, YDE-043 or reference compound; Xiidra® at various concentration (ranging from […] to 500 nM) for 2 h before stimulation. An equal volume of 0.5% DMSO was used as a vehicle control. Then, the cells were treated with LPS at 5 ug/ml, which was selected based on the pilot study. The supernatants from treated cells were harvested at 24 h and placed in a 96 well for Luminex cytokine & chemokine profiling using a Luminex 200 multiplex assay (Luminex; R&D system, USA).
(§2) The main study arm with triplicate wells per group in a 24-well plate: • 1. Blank • 2. PBMC: 0.5% DMSO • 3. PBMC+LPS (5 ug/ml) • 4. PBMC+YY-101 500 nM • 5. PBMC+YY-101 50 nM • 6. PBMC+YY-101 5 nM • 7. PBMC+YY-101 0.5 nM • 8. PBMC+LPS (5 ug/ml)+Xiidra® 500 nM • 9. PBMC+LPS (5 ug/ml)+Xiidra® 50 nM • 10. PBMC+LPS (5 ug/ml)+Xiidra® 5 nM • 11. PBMC+LPS (5 ug/ml)+Xiidra® 0.5 nM • 12. PBMC+LPS (5 ug/ml)+Xiidra® 0.05 nM • 13. PBMC+LPS (5 ug/ml)+Xiidra® 0.005 nM • 14. PBMC+LPS (5 ug/ml)+YY-101 500 nM • 15. PBMC+LPS (5 ug/ml)+YY-101 50 nM • 16. PBMC+LPS (5 ug/ml)+YY-101 5 nM • 17. PBMC+LPS (5 ug/ml)+YY-101 0.5 nM • 18. PBMC+LPS (5 ug/ml)+YY-101 0.05 nM • 19. PBMC+LPS (5 ug/ml)+YY-101 0.005 nM • 20. PBMC+LPS (5 ug/ml)+YDE-011 500 nM • 21. PBMC+LPS (5 ug/ml)+YDE-011 50 nM • 22. PBMC+LPS (5 ug/ml)+YDE-011 5 nM • 23. PBMC+LPS (5 ug/ml)+YDE-011 0.5 nM • 24. PBMC+LPS (5 ug/ml)+YDE-011 0.05 nM • 25. PBMC+LPS (5 ug/ml)+YDE-011 0.005 nM • 26. PBMC+LPS (5 ug/ml)+YDE-043 500 nM • 27. PBMC+LPS (5 ug/ml)+YDE-043 50 nM • 28. PBMC+LPS (5 ug/ml)+YDE-043 5 nM • 29. PBMC+LPS (5 ug/ml)+YDE-043 0.5 nM • 30. PBMC+LPS (5 ug/ml)+YDE-043 0.05 nM • 31. PBMC+LPS (5 ug/ml)+YDE-043 0.005 nM
(§3) Multiplex assay was used to measure 30 cytokines and chemokines. The 1:200 diluted cell supernatant and serial dilution of the standard were dispensed into a 96 well plate at 50 ul/well. Then, the pre-mixed cocktail of antibody-coated magnetic beads was dispensed at 50 ul/well and incubated at room temperature for 2 h in a horizontal orbital microplate shaker at 800±500 rpm. The beads were washed using a magnetic device to prevent loss. The biotin-antibody was dispensed in 50 ul of each well and incubated at room temperature for 1 h in a shaker at 800±500 rpm. After washing, streptavidin-PE was added at 50 ul/well and incubated at room temperature for 30 min in a shaker under the same conditions. Finally, after washing, wash buffer (100 ul/well) was added to the plate and incubated in a shaker for 2 min. The Luminex™ 200 setting were set according to the manufacturer's protocol. The data was calculated with a standard five-parameter logistic nonlinear regression analysis of the data (xPonent software 4.2, USA). Results were presented as concentration (ng/ml or pg/ml).

IL-1 beta/IL-1F2 = assay: Example 8 main study Luminex, LPS hPBMCs: IL-1 beta/IL-1F2; assay type: cell-based, human
Method: as §1, §2, §3

[1] = PBMC + LPS(5 ug/ml) + YDE011 0.005 nM
[2] = PBMC + LPS(5 ug/ml) + YDE011 0.05 nM
[3] = PBMC + LPS(5 ug/ml) + YDE011 0.5 nM
[4] = PBMC + LPS(5 ug/ml) + YDE011 5 nM
[5] = PBMC + LPS(5 ug/ml) + YDE011 50 nM
[6] = PBMC + LPS(5 ug/ml) + YDE011 500 nM
[7] = PBMC + LPS(5 ug/ml) + test article 0.005 nM, Mean
[8] = PBMC + LPS(5 ug/ml) + test article 0.005 nM, individual replicates
[9] = PBMC + LPS(5 ug/ml) + test article 0.05 nM, Mean
[10] = PBMC + LPS(5 ug/ml) + test article 0.05 nM, individual replicates
[11] = PBMC + LPS(5 ug/ml) + test article 0.5 nM, Mean
[12] = PBMC + LPS(5 ug/ml) + test article 0.5 nM, individual replicates
[13] = PBMC + LPS(5 ug/ml) + test article 5 nM, Mean
[14] = PBMC + LPS(5 ug/ml) + test article 5 nM, individual replicates
[15] = PBMC + LPS(5 ug/ml) + test article 50 nM, Mean
[16] = PBMC + LPS(5 ug/ml) + test article 50 nM, individual replicates
[17] = PBMC + LPS(5 ug/ml) + test article 500 nM, Mean
[18] = PBMC + LPS(5 ug/ml) + test article 500 nM, individual replicates

Compound: CC(C)C[C@H](NC(=O)CNC(=O)[C@H](CC(C)C)NC(=O)[C@H](CCC(N)=O)NC(=O)CNC(=O)[C@@H]1C[C@@H](O)CN1)C(=O)N[C@@H](C)C(=O)NCC(=O)N1CCC[C@H]1C(=O)N[C@@H](CCCCN)C(=O)O [YDE-011] (H-[Hyp]GQLGLAGPK-OH)
- CCL2/MCP-1 Concentration, Mean (CCL2/MCP-1; [1]): 4425.2 pg/mL
- CCL2/MCP-1 Concentration (CCL2/MCP-1; [1]): 4425.5 pg/mL and 4528.4 pg/mL and 4321.5 pg/mL
- CCL2/MCP-1 Concentration, Mean (CCL2/MCP-1; [2]): 4442.7 pg/mL
- CCL2/MCP-1 Concentration (CCL2/MCP-1; [2]): 4425.5 pg/ml (2×) and 4477.1 pg/ml
- CCL2/MCP-1 Concentration, Mean (CCL2/MCP-1; [3]): 4303.7 pg/mL
- CCL2/MCP-1 Concentration (CCL2/MCP-1; [3]): 4425.5 pg/mL and 4269.1 pg/mL and 4216.3 pg/mL
- CCL2/MCP-1 Concentration, Mean (CCL2/MCP-1; [4]): 4178.7 pg/mL
- CCL2/MCP-1 Concentration (CCL2/MCP-1; [4]): 3893.1 pg/ml and 4321.5 pg/ml (2×)
- CCL2/MCP-1 Concentration, Mean (CCL2/MCP-1; [5]): 4173.5 pg/mL
- CCL2/MCP-1 Concentration (CCL2/MCP-1; [5]): 4528.4 pg/mL and 3670.6 pg/mL and 4321.5 pg/mL
- CCL2/MCP-1 Concentration, Mean (CCL2/MCP-1; [6]): 4170.5 pg/mL
- CCL2/MCP-1 Concentration (CCL2/MCP-1; [6]): 4731.0 pg/mL and 3670.6 pg/mL and 4109.9 pg/mL
- LPS-induced CCL-2 (in words) (CCL2/MCP-1; at as low as 5 μM, LPS 5 ug/mL 24 hrs): significantly reduced
- IL-1 beta/IL-1F2 Concentration (IL-1 beta/IL-1F2; [7]): 5171.7 pg/mL
- IL-1 beta/IL-1F2 MFI (IL-1 beta/IL-1F2; [7]): 94.5
- IL-1 beta/IL-1F2 Concentration (IL-1 beta/IL-1F2; [8]): 5350.1 pg/mL and 5023.0 pg/mL and 5141.9 pg/mL
- IL-1 beta/IL-1F2 MFI (IL-1 beta/IL-1F2; [8]): 97.5 and 92.0 and 94.0
- IL-1 beta/IL-1F2 Concentration (IL-1 beta/IL-1F2; [9]): 5836.1 pg/mL
- IL-1 beta/IL-1F2 MFI (IL-1 beta/IL-1F2; [9]): 105.7
- IL-1 beta/IL-1F2 Concentration (IL-1 beta/IL-1F2; [10]): 5796.4 pg/mL and 6094.1 pg/mL and 5617.8 pg/mL
- IL-1 beta/IL-1F2 MFI (IL-1 beta/IL-1F2; [10]): 105.0 and 110.0 and 102.0
- IL-1 beta/IL-1F2 Concentration (IL-1 beta/IL-1F2; [11]): 4864.5 pg/mL
- IL-1 beta/IL-1F2 MFI (IL-1 beta/IL-1F2; [11]): 89.3
- IL-1 beta/IL-1F2 Concentration (IL-1 beta/IL-1F2; [12]): 4844.7 pg/mL and 4963.6 pg/mL and 4785.3 pg/mL
- IL-1 beta/IL-1F2 MFI (IL-1 beta/IL-1F2; [12]): 89.0 and 91.0 and 88.0
- IL-1 beta/IL-1F2 Concentration (IL-1 beta/IL-1F2; [13]): 4350.3 pg/mL
- IL-1 beta/IL-1F2 MFI (IL-1 beta/IL-1F2; [13]): 80.7
- IL-1 beta/IL-1F2 Concentration (IL-1 beta/IL-1F2; [14]): 3539.2 pg/mL and 4250.8 pg/mL and 5260.9 pg/mL
- IL-1 beta/IL-1F2 MFI (IL-1 beta/IL-1F2; [14]): 67.0 and 79.0 and 96.0
- IL-1 beta/IL-1F2 Concentration (IL-1 beta/IL-1F2; [15]): 4786.7 pg/mL
- IL-1 beta/IL-1F2 MFI (IL-1 beta/IL-1F2; [15]): 88.0
- IL-1 beta/IL-1F2 Concentration (IL-1 beta/IL-1F2; [16]): 5558.3 pg/mL and 5617.8 pg/mL and 3183.9 pg/mL
- IL-1 beta/IL-1F2 MFI (IL-1 beta/IL-1F2; [16]): 101.0 and 102.0 and 61.0
- IL-1 beta/IL-1F2 Concentration (IL-1 beta/IL-1F2; [17]): 4262.6 pg/mL
- IL-1 beta/IL-1F2 MFI (IL-1 beta/IL-1F2; [17]): 79.2
- IL-1 beta/IL-1F2 Concentration (IL-1 beta/IL-1F2; [18]): 5796.4 pg/mL and 2681.1 pg/mL and 4310.2 pg/mL
- IL-1 beta/IL-1F2 MFI (IL-1 beta/IL-1F2; [18]): 105.0 and 52.5 and 80.0

Reference: US20230146455A1, “TREATMENT OF INFLAMMATORY DISEASES WITH PEPTIDES AND PHARMACEUTICAL COMPOSITIONS” (Yuyu Pharma, Inc., priority 2020, published 2023)
